IC50 data for 37 compounds are collected here from patent publication US8299056B2 (Signal Pharmaceuticals, LLC, priority 2008, dated 2012).

pIC50: −log10 of the molar value. Where two headings read alike, the source gives them in different places.

In this experiment the target is T1, Syk (Homo sapiens, UniProt P43405).
T1 construct: purchased Carna Biosciences
The experiment in a line: Syk HTRF assay. Format: biochemical. In outline:
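Read-out is the 665 nm/615 nm time-resolved fluorescence ratio after EDTA stop and Eu-anti-phosphotyrosine plus streptavidin-DyLight 647 detection. Reaction ran 1 h at room temperature with start mix of 87.5 μM ATP and 80 nM substrate peptide in pH 7.6 HEPES/MgCl2 buffer.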

Setting [1] is: read-out: Activity Level (Syk HTRF assay IC50).
Setting [2] is: IC50 activity level, read-out: Activity Level.
Setting [3] is: activity levels A-D, read-out: Activity Level (IC50 in the Syk HTRF assay).

On to `O=C1c2ccc(Nc3nc4cccc(N[C@H]5CC[C@@H](O)CC5)n4n3)cc2CN1CCO` [Example 198, cis-5-(5-(4-hydroxycyclohexylamino)-[1,2,4]triazolo[1,5-a]pyridin-2-ylamino)-2-(2-hydroxyethyl)isoindolin-1-one], for which the pIC50 under setting [1] was 6.60 to 11.30.

As for `c1cc(N[C@H]2CCCNC2)n2nc(Nc3ccc4nn[nH]c4c3)nc2c1` [Example 454, (S)-N^2-(1H-benzo[d][1,2,3]triazol-6-yl)-N^5-(piperidin-3-yl)-[1,2,4]triazolo[1,5-a]pyridine-2,5-diamine], the pIC50 under setting [2] was 6.60 to 11.30.

As to `O=C1c2cc(Nc3nc4cccc(N[C@H]5CC[C@@H](O)CC5)n4n3)ccc2CN1CCO` [Example 206, cis-6-(5-(4-hydroxycyclohexylamino)-[1,2,4]triazolo[1,5-a]pyridin-2-ylamino)-2-(2-hydroxyethyl)isoindolin-1-one], the pIC50 under setting [3] was 5.00 to 6.00.

As to `O=S1(=O)NCc2ccc(Nc3nc4cccc(-c5ccccc5)n4n3)cc21` [compound 37], the pIC50 under setting [1] was 6.60 to 11.30.

In the case of `COc1cccc(Nc2nc3cccc(N[C@H]4CC[C@@H](O)CC4)n3n2)n1` [Example 342, cis-4-(2-(6-methoxypyridin-2-ylamino)-[1,2,4]triazolo[1,5-a]pyridin-5-ylamino)cyclohexanol], the pIC50 under setting [3] was 5.00 to 6.00.

In the case of `O[C@H]1CC[C@@H](Nc2cccc3nc(Nc4cccc(F)c4)nn23)CC1` [Example 355, cis-4-(2-(3-fluorophenylamino)-[1,2,4]triazolo[1,5-a]pyridin-5-ylamino)cyclohexanol], under setting [3], the pIC50 was 6.60 to 11.30.

Regarding `CC(C)C1CNC(=O)CN1Cc1cccc2nc(Nc3ccc(C(F)(F)F)cc3)nn12` (racemic) [Example 230, (±)-5-isopropyl-4-((2-(4-(trifluoromethyl)phenylamino)-[1,2,4]triazolo[1,5-a]pyridin-5-yl)methyl)piperazin-2-one], under setting [3], the pIC50 is 5.00 to 6.00.

Turning to `c1ccc(Nc2nc3cccc(-c4ccccn4)n3n2)cc1` [Example 488, N-phenyl-5-(pyridin-2-yl)-[1,2,4]triazolo[1,5-a]pyridin-2-amine], the pIC50 under setting [2] was 5.00 to 6.00.

Take `CNC(=O)c1ccc(Nc2nc3cccc(-c4cccc(OC)c4)n3n2)cc1` [compound 20, 4-(5-(3-methoxyphenyl)-[1,2,4]triazolo[1,5-a]pyridin-2-ylamino)-N-methylbenzamide]: under setting [1], the pIC50 was 6.30 to 6.60.

With `c1ccc(-c2cccc3nc(Nc4ccc(-c5ncn[nH]5)cc4)nn23)cc1` [compound 56, N-(4-(1H-1,2,4-triazol-5-yl)phenyl)-5-phenyl-[1,2,4]triazolo[1,5-a]pyridin-2-amine], the pIC50 under setting [1] is 6.60 to 11.30.

`c1cc(CC2CCOCC2)n2nc(Nc3cnc4cn[nH]c4c3)nc2c1` [compound 106, N-(5-((tetrahydro-2H-pyran-4-yl)methyl)-[1,2,4]triazolo[1,5-a]pyridin-2-yl)-1H-pyrazolo[4,3-b]pyridin-6-amine]: the pIC50 under setting [1] is 6.00 to 6.30.

As for `CC1(C)NC(=O)c2cc(Nc3nc4cccc(N[C@H]5CC[C@@H](O)CC5)n4n3)ccc21` [compound 120, cis-6-(5-(4-hydroxycyclohexylamino)-[1,2,4]triazolo[1,5-a]pyridin-2-ylamino)-3,3-dimethylisoindolin-1-one], the pIC50 under setting [1] was 6.30 to 6.60.

On to `c1ccc(Nc2nc3cccc(-c4ccc5[nH]ncc5c4)n3n2)cc1` [Example 522, 5-(1H-indazol-5-yl)-N-phenyl-[1,2,4]triazolo[1,5-a]pyridin-2-amine], for which the pIC50 under setting [2] was 6.00 to 6.30.

Consider `Cc1cc(Nc2nc3cccc(N[C@H]4CC[C@@H](O)CC4)n3n2)cnc1N1CCOCC1` [compound 105, cis-4-(2-(5-methyl-6-morpholinopyridin-3-ylamino)-[1,2,4]triazolo[1,5-a]pyridin-5-ylamino)cyclohexanol], for which the pIC50 under setting [1] was 6.60 to 11.30.

Consider `Cc1n[nH]c2cc(Nc3nc4cccc(C(F)(F)C5COCCO5)n4n3)ccc12` (stereo not shown) [Example 563, 5-((1,4-dioxan-2-yl)difluoromethyl)-N-(3-methyl-1H-indazol-6-yl)-[1,2,4]triazolo[1,5-a]pyridin-2-amine], for which the pIC50 under setting [2] was 6.60 to 11.30.

For the compound `c1ccc(-c2cccc3nc(Nc4ccc5c(NC6CCNCC6)n[nH]c5c4)nn23)cc1` [compound 23], the pIC50 under setting [1] was 6.60 to 11.30.

For the compound `CC1(C)C(=O)Nc2cc(Nc3nc4cccc(O[C@H]5CCOC5)n4n3)ccc21` [compound 133, (S)-3,3-dimethyl-6-(5-(tetrahydrofuran-3-yloxy)-[1,2,4]triazolo[1,5-a]pyridin-2-ylamino)indolin-2-one], under setting [1], the pIC50 is 6.30 to 6.60.

Take `c1ccc(Nc2nc3cccc(Nc4ccccn4)n3n2)cc1` [Example 484, N^2-phenyl-N^5-(pyridin-2-yl)-[1,2,4]triazolo[1,5-a]pyridin-2,5-diamine]: the pIC50 under setting [2] is 6.00 to 6.30.

Consider `NC(=O)c1cc(Nc2nc3cccc(-c4ccccc4)n3n2)ccc1F` [compound 65, 2-fluoro-5-(5-phenyl-[1,2,4]triazolo[1,5-a]pyridin-2-ylamino)benzamide], for which the pIC50 under setting [1] was 5.00 to 6.00.

For `Cc1n[nH]c2cc(Nc3nc4cccc(NC[C@@H]5CC[C@H](O)C5)n4n3)ccc12` [Example 178, (1S,3R)-3-((2-(3-methyl-1H-indazol-6-ylamino)-[1,2,4]triazolo[1,5-a]pyridin-5-ylamino)methyl)cyclopentanol], the pIC50 under setting [1] is 6.60 to 11.30.

Consider `OCC1CCCN(Cc2cccc3nc(Nc4ccc(C(F)(F)F)cc4)nn23)C1` (stereo not shown) [Example 273, (1-((2-(4-(trifluoromethyl)phenylamino)-[1,2,4]triazolo[1,5-a]pyridin-5-yl)methyl)piperidin-3-yl)methanol], for which, under setting [3], the pIC50 is 5.00 to 6.00.

In the case of `O[C@H]1CC[C@@H](Nc2cccc3nc(Nc4ccc(C(F)(F)F)cc4)nn23)CC1` [Example 453, cis-4-(2-(4-(trifluoromethyl)phenylamino)-[1,2,4]triazolo[1,5-a]pyridin-5-ylamino)cyclohexanol], the pIC50 under setting [2] is 6.60 to 11.30.

For `CC1(C)C(=O)Nc2cc(Nc3nc4cccc(Cc5cc[nH]c(=O)c5)n4n3)ccc21` [Example 156, 3,3-dimethyl-6-(5-((2-oxo-1,2-dihydropyridin-4-yl)methyl)-[1,2,4]triazolo[1,5-a]pyridin-2-ylamino)indolin-2-one], under setting [1], the pIC50 was 6.60 to 11.30.

Regarding `CNC(=O)c1ccc(Nc2nc3cccc(-c4cccc(CCCN)c4)n3n2)cc1` [compound 8, 4-(5-(3-(3-aminopropyl)phenyl)-[1,2,4]triazolo[1,5-a]pyridin-2-ylamino)-N-methylbenzamide], the pIC50 under setting [1] was 6.60 to 11.30.

Consider `N[C@H]1CC[C@@H](Nc2cccc3nc(Nc4ccccc4)nn23)CC1` [Example 508, cis-N^5-(4-aminocyclohexyl)-N^2-phenyl-[1,2,4]triazolo[1,5-a]pyridine-2,5-diamine], for which the pIC50 under setting [2] is 6.30 to 6.60.

On to `c1ccc(-c2cccc3nc(Nc4ccc5[nH]ncc5c4)nn23)cc1` [compound 61], for which, under setting [1], the pIC50 was 6.60 to 11.30.

For the compound `Cn1cnc2ccc(Nc3nc4cccc(-c5ccccc5)n4n3)cc21` [compound 47, N-(1-methyl-1H-benzo[d]imidazol-6-yl)-5-phenyl-[1,2,4]triazolo[1,5-a]pyridin-2-amine], the pIC50 under setting [1] was 6.60 to 11.30.

For `Cn1c(=O)[nH]c2cc(Nc3nc4cccc(CC5CCOCC5)n4n3)ccc21` [Example 532, 1-methyl-5-(5-((tetrahydro-2H-pyran-4-yl)methyl)-[1,2,4]triazolo[1,5-a]pyridin-2-ylamino)-1H-benzo[d]imidazol-2(3H)-one], the pIC50 under setting [2] is 6.60 to 11.30.

Take `Nc1nccc2ccc(-c3cccc4nc(Nc5ccccc5)nn34)cc12` [Example 489, 7-(2-(phenylamino)-[1,2,4]triazolo[1,5-a]pyridin-5-yl)isoquinolin-1-amine]: the pIC50 under setting [2] is 6.00 to 6.30.

Consider `Cc1ccc(Nc2nc3cccc(N[C@H]4CC[C@@H](O)CC4)n3n2)cc1` [Example 343, cis-4-(2-(p-tolylamino)-[1,2,4]triazolo[1,5-a]pyridin-5-ylamino)cyclohexanol], for which the pIC50 under setting [3] was 6.60 to 11.30.

As for `OC1(Cc2cccc3nc(Nc4ccc(F)cc4)nn23)CCNCC1` [Example 430, 4-((2-(4-fluorophenylamino)-[1,2,4]triazolo[1,5-a]pyridin-5-yl)methyl)piperidin-4-ol], under setting [2], the pIC50 is 5.00 to 6.00.

`CC(O)c1nc2ccc(-c3cccc4nc(Nc5ccc(C(F)(F)F)cc5)nn34)cc2[nH]1` (stereo not shown) [Example 402, 1-(6-(2-(4-(trifluoromethyl)phenylamino)-[1,2,4]triazolo[1,5-a]pyridin-5-yl)-1H-benzo[d]imidazol-2-yl)ethanol]: the pIC50 under setting [2] was 6.60 to 11.30.

`CN(c1cccc2nc(Nc3ccc(C(F)(F)F)cc3)nn12)[C@H]1CC[C@@H](O)CC1` [Example 266, cis-4-(methyl(2-(4-(trifluoromethyl)phenylamino)-[1,2,4]triazolo[1,5-a]pyridin-5-yl)amino)cyclohexanol]: under setting [3], the pIC50 is 5.00 to 6.00.

`CNC(=O)c1ccc(Nc2nc3cccc(-c4cccc(Cl)c4)n3n2)cc1` [compound 13, 4-(5-(3-chlorophenyl)-[1,2,4]triazolo[1,5-a]pyridin-2-ylamino)-N-methylbenzamide]: under setting [1], the pIC50 was 6.60 to 11.30.

With `NC(=O)c1nc2ccc(-c3cccc4nc(Nc5ccc(C(F)(F)F)cc5)nn34)cc2[nH]1` [Example 408, 6-(2-(4-(trifluoromethyl)phenylamino)-[1,2,4]triazolo[1,5-a]pyridin-5-yl)-1H-benzo[d]imidazole-2-carboxamide], under setting [2], the pIC50 is 6.60 to 11.30.

For `c1ccc(Nc2nc3cccc(-c4cccnc4)n3n2)cc1` [Example 524, N-phenyl-5-(pyridin-3-yl)-[1,2,4]triazolo[1,5-a]pyridin-2-amine], the pIC50 under setting [2] was 5.00 to 6.00.

Take `N#Cc1ccc(Nc2nc3cccc(N[C@H]4CC[C@@H](O)CC4)n3n2)c(F)c1` [Example 341, cis-3-fluoro-4-(5-(4-hydroxycyclohexylamino)-[1,2,4]triazolo[1,5-a]pyridin-2-ylamino)benzonitrile]: the pIC50 under setting [3] is 5.00 to 6.00.
